{
  "source": "patent EP0717040A1",
  "about": "“Thiazine or thiazepine derivatives which inhibit NOS” (Japan Tobacco Inc., priority 1994, dated 1996)",
  "key": {"[1]": {"target": "T1, constitutive NO synthase (cNOS) (Rattus norvegicus, UniProt P29476)", "T1 construct": "cNOS was extracted from a rat cerebellum; from tissue; host or cells: rat cerebellum", "experiment": "Activity to inhibit constitutive NO synthase (cNOS) derived from rat cerebellum; conversion of [3H]-L-arginine to [3H]-L-citrulline", "format": "biochemical", "details": "cNOS extracted from rat cerebellum, 10 µM L-arginine, 10 minutes at 25°C; read-out: IC₅₀", "description": "Activity to inhibit constitutive NO synthase (cNOS) derived from rat cerebellum\nThe inhibition activity was tested according to a method of P. A. Bush et al. (Biochem, Biophys, Res. Commun., 185, 960-966 (1992)), using [³H]-L-arginine as a substrate and taking the conversion of [³H]-L-arginine to [³H]-L-citrulline as an index of the enzyme activity.\nThe test was conducted as follows: First, cNOS was extracted from a rat cerebellum with a 50 mM Tris-HCl buffer solution (pH 7.4) which contains 0.1 mM EDTA (ethylenediamine tetraacetate), 0.1 mM EGTA (ethyleneglycol bis(β-aminoethyl ether)-tetraacetate), 0.5 mM DTT (dithiothreitol), 1 µM PMSF (phenylmethylsulfonyl fluoride), 1 µM bestatin A, and 1 µM leupeptin. To the cNOS thus extracted, a 50 mM Tris-HCl buffer solution (pH 7.4) containing 10 µM L-arginine, 10 µM NADPH, 2 mM calcium chloride and calmoduline (0.1 µg), together with a test compound and [³H]-L-arginine were added. The mixture was incubated for 10 minutes at 25°C. The reaction was terminated by adding 20 mM sodium acetate buffer solution (pH 5.5) containing 1 mM L-citrulline, 2 mM EDTA, and 0.2 mM EGTA. The reaction solution was passed through a cation-exchange resin. This eluate was combined with another eluate which was obtained thereafter by eluting with water. To the combined eluate, a liquid scintillation cocktail was further added and its radioactivity (A) was measured. At the same time, the radioactivity (B) with respect to the case where the test compound was not added and the radioactivity (C) with respect to the case where an enzyme fraction was not added, were respectively measured. Then, the rate of cNOS inhibition was calculated in accordance with the following equation. The concentration (IC₅₀), at which the test compound can inhibit 50 % of the enzyme activity, were also calculated. Inhibition rate (%) = {1 - (A - C/B - C)} × 100 [formula]"}, "[2]": {"target": "inducible NO synthase (iNOS) (Rattus norvegicus, UniProt Q06518)", "experiment": "Activity to inhibit inducible NO synthase (iNOS) derived from rat macrophages; conversion of [3H]-L-arginine to [3H]-L-citrulline", "format": "biochemical", "set-up": "iNOS was extracted from the macrophages which have been treated with lipopolysaccharide and interferon-γ; endogenous in cells; host or cells: rat peritoneal macrophages treated with lipopolysaccharide and interferon-γ", "details": "iNOS from peritoneal macrophages treated with lipopolysaccharide and interferon-γ, 150 µM L-arginine, 30 minutes at 37°C; read-out: IC₅₀", "description": "Activity to inhibit inducible NO synthase (iNOS) derived from rat macrophages\nAccording to partly modified method of Y. Yui et al.(J. Biol. Chem., 266 (19), 12544-12547 (1991)), an iNOS fraction was prepared by applying lipopolysaccharide and interferon-γ to peritoneal macrophages. Thereafter, its enzymatic activity was measured based on the conversion of [³H]-L-arginine to [³H]-L-citrulline, in the same manner as in the case of cNOS.\nTo the iNOS thus extracted, a 50 mM Tris-HCl buffer solution (pH 7.4) containing 150 µM L-arginine, 5 mM NADPH, 5 mM DTT, 0.5 mM 5,6,7,8-tetrahydro-L-biopterin and 5 µM FAD was added together with a test compound and [³H]-L-arginine. The mixture was incubated for 30 minutes at 37°C. Thereafter, the reaction was terminated by adding a 25 mM sodium acetate buffer solution (pH 5.5) containing 1.25 mM L-citrulline, 2.5 mM EDTA and 0.25 mM EGTA. The reaction solution was passed through a cation-exchange resin. The obtained eluate was combined with the additional eluate obtained thereafter by eluting with water, and the radioactivity of the combined eluate was measured. The inhibition rate of the test compound on iNOS was calculated in the same manner as in Test 1. The concentration (IC₅₀) of the test compound required for inhibiting 50 % of the enzyme activity, were calculated."}, "[3]": {"target": "T2, endothelium nitric oxide synthase (eNOS) (Rattus norvegicus, UniProt Q62600)", "T2 construct": "from tissue; host or cells: living anesthetized rat", "experiment": "Blood pressure elevating activity in rat by inhibition of eNOS", "format": "in vivo", "details": "dose to elevate mean blood pressure by 25 mmHg; anesthetized rat, administered via femoral vein", "description": "Blood pressure elevating activity in rat by inhibition of endothelium nitric oxide synthase (eNOS) A rat was anesthetized with by peritoneal injection of sodium barbital (300 mg/kg) and catheters were inserted into a femoral artery and a femoral vein. Blood pressure was measured through the catheter inserted in the femoral artery and a test compound was administered through the catheter inserted in the femoral vein. […]"}, "neuronal NOS (nNOS)": {"target": "T3, neuronal NOS (nNOS) (Rattus norvegicus, UniProt P29476)", "T3 construct": "from tissue; host or cells: living rat (brain)", "experiment": "Effect on rat cerebral ischemia model by nNOS inhibition: permanent occlusion model", "format": "in vivo", "details": "dose 10µg/kg+1µg/kg/min; intravenous 5 minutes after occlusion, then infused for 6 hours; cerebral infarct area after 24 hours", "source_text": "Effect on rat cerebral ischemia model by neuronal NOS (nNOS) inhibition: permanent occlusion model According to a partly modified method of Tamura et al. (J. Cereb. Blood Flow Matab., 1, 53-60 (1981)), an cerebral ischemia model was established by permanently blocking a rat middle cerebral artery. That is, a rat was anesthetized with laughing gas - oxygen and halothane, and then, a hole was formed at a cranial bone in the periphery of oval foramen, thereby exposing the middle cerebral artery. Subsequently, a middle cerebral artery was clipped and coagulated, thereby established a permanent occlusion model. After 24 hours, a brain was excised out and cerebral infarct area were determined by use of triphenyltetrazolium chloride. A test compound was injected intravenously 5 minutes after the occlusion and subsequently infused for 6 hours. The suppression effect was investigated."}},
  "note": "pIC50: −log10 of the molar value.",
  "data": [
    {"compound": "CCC[C@@H]1CCSC(N)=N1.Cl", "note": "[Example 31, (R)-2-amino-5,6-dihydro-4-propyl-4H-1,3-thiazine hydrochloride]", "values": [
      {"measurement": "pIC50", "setting": "[1]", "value": 7.70},
      {"measurement": "pIC50", "setting": "[2]", "value": 8.00},
      {"measurement": "ED₂₅", "setting": "[3]", "value": 0.46, "unit": "mg/kg"},
      {"measurement": "Suppression Effect", "setting": "neuronal NOS (nNOS)", "value": "○ (10µg/kg+1µg/kg/min)"}
    ]}
  ]
}
